Reference: patent US7829560B2, “1,4-disubstituted naphthalenes as inhibitors of P38 MAP kinase” (Arqule, Inc., priority 2004, dated 2010)

Legend:
p38α = molecular target: T1, p38α (Homo sapiens, UniProt Q16539); test: p38 MAP Kinase assay: inhibition of ATF2 phosphorylation, ELISA; type: biochemical; details: for IC50: ATF2 phosphorylation, read-out: [ENZ] P38 ALPHA, IC50, ELISA; for inhibition at 10 µM: substrate ATF2, read-out: [ENZ] P38 ALPHA, PCT INH, ELISA (10 uM;ATF2) (Percent)
T1 construct: p38 MAP Kinases are recombinant human full-length proteins with an amino-terminal GST fusion; GST (N); purchased Upstate Biotechnology Inc; host or cells: E. coli
Outline: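 In vitro phosphorylation of ATF2 at Thr69 by recombinant human GST-p38 MAP kinase, read by anti-phospho-ATF2 ELISA at 450 nm. Enzyme and compound pre-incubated 15 min at RT, then 30 min reaction at 37 °C with 40 μM ATP and 1.25 μM ATF2; buffer with or without 1% HSA (Method II or I).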

[1] = system: TNFα release from THP-1 cells; test: Inhibition of TNFα release from LPS-stimulated THP-1 cells, ELISA; type: cell-based; details: Homo sapiens, THP-1, THP-1 cells, read-out: [CELL] THP-1, IC50, TNF ALPHA, ELISA
Text: Compounds of the invention are screened for the ability to inhibit TNFα and IL-1β release from THP-1 cells stimulated with lipopolysaccharide (LPS) in vitro. The ability of compounds to inhibit TNFα and IL-1β release in this in vitro assay is correlated with the inhibition of p38 activity and TNFα and IL-1β expression in vivo, and is therefore an indicator of potential in vivo therapeutic activity (Lee J. C. et al, Ann. N.Y. Acad. Sci. 696: 149-170, 1993 and Nature, 372: 739-746, 1994).
Materials: THP-1 cells from ATCC (TIB202) are maintained at 37° C., 5% CO2 in RPMI 1640 media (available from MediaTech, Herndon, Va.) containing 4.5 g/L glucose, supplemented with 10% fetal bovine serum, 1% penicillin/streptomycin and 50 μM β-mercaptoethanol.
Methods: Test compounds are initially dissolved in RPMI media with 1% DMSO (v/v). Compounds are then serially diluted in RPMI media for all subsequent dilutions. The assay is performed under sterile conditions. THP-1 cells at a culture density of 6-8×10^5 cells/ml are collected and resuspended in the RPMI media at 10^6 cells/ml containing 10% fetal bovine serum, no serum or 1% human serum albumin (HSA). 100 μl of resuspended cells are added to each well, which contain 100 μl of a test compound. Test compounds are prepared at twice the final concentration. Final DMSO concentration is no more than 0.5% (v/v). Cells are preincubated with compound for 30 minutes at 37° C., 5% CO2 prior to stimulation with lipopolysaccharide (LPS) (Sigma L-2880, 4 mg/ml stock in PBS). The final LPS concentration in each well is 10 or 30 μg/ml for TNFα and IL-1β release, respectively. Unstimulated control cell suspensions receive PBS vehicle only. Cell mixtures are incubated for 18 or 48 hours for TNFα and IL-1β prelease, respectively. 150 μl of supernatants are taken and transferred to a fresh plate and stored at −20° C. until further analysis. TNFα and IL-1β levels are measured using ELISA kits from Biosource (Catalog no. KHC3012 for TNFα; KAC1192 for IL-1β). A SpectraMAX 250 is used as the plate reader. Analysis is performed by non-linear regression to generate a dose response curve. The calculated IC50 value is the concentration of the test compound that causes a 50% decrease in TNFα or IL-1β levels.

T1 sequence (Q16539 whole entry, the tested form may be a part): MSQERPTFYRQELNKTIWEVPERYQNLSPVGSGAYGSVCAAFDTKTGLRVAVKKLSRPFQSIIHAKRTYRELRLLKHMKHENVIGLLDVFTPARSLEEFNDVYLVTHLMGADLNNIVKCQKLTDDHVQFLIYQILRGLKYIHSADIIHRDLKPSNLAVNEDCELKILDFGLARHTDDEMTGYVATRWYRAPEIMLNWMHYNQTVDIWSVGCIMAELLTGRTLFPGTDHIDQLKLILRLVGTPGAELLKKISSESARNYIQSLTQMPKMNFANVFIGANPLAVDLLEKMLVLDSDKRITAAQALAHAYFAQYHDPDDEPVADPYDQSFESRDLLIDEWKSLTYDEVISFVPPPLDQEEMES

Row | IC50 (p38α) [nM] | IC50 [1] [nM] | inhibition at 10 µM (p38α) [%] | SMILES
1 | 363 | 256 | – | CC1CCN(c2cc(F)cc(C(=O)Nc3ccc(Oc4ccnc(NC5CCCC5)n4)c4ccccc34)c2)CC1 [Compound B266, N-(4-{[2-(Cyclopentylamino)pyrimidin-4-yl]oxy}-1-naphthyl)-3-fluoro-5-(4-methylpiperidin-1-yl)benzamide]
2 | > 100000 | > 10000 | – | CN(C)c1ccccc1C(=O)Nc1ccc(OCCN2CCOCC2)c2ccccc12 [Compound B35]
3 | > 10000 | 1010 | – | O=C(Nc1ccc(OCCN2CCOCC2)c2ccccc12)c1ccnc(N2CCC3(CC2)OCCO3)c1 [Compound B44, 2-(1,4-Dioxa-8-aza-spiro[4.5]dec-8-yl)-N-[4-(2-morpholin-4-yl-ethoxy)-naphthalen-1-yl]-isonicotinamide]
4 | 3.2 | 9.5 | – | O=C(Nc1ccc(Oc2ccnc(NC[C@@H]3CCCO3)n2)c2ccccc12)c1cc(F)cc(N2CCOCC2)c1 [Compound B358]
5 | 3520 | 2100 | 73.5 | O=C(Nc1ccc(OCCN2CCOCC2)c2ccccc12)c1ccnc(N2CCOCC2)c1 [Compound B122, 2-Morpholin-4-yl-N-[4-(2-morpholin-4-yl-ethoxy)-naphthalen-1-yl]-isonicotinamide]
6 | 21800 | > 10000 | – | O=C(Nc1ccc(OCCN2CCOCC2)c2ccccc12)c1ccccc1 [Compound B26]
7 | > 10000 | > 10000 | – | Cc1ccc(-c2cccc(C(=O)Nc3ccc(OCCN4CCOCC4)c4ccccc34)c2)c(C)c1 [Compound B299]
8 | 3.9 | 92.6 | – | COCC(C)Nc1nccc(Oc2ccc(NC(=O)c3cc(F)cc(N4CCOCC4)c3)c3ccccc23)n1 (stereo not shown) [Compound B353]
9 | 51.5 | > 1000 | – | N#CNc1nccc(Oc2ccc(NC(=O)c3cc(F)cc(N4CCOCC4)c3)c3ccccc23)n1 [Compound B330, N-(4-{[2-(Cyanoamino)pyrimidin-4-yl]oxy}-1-naphthyl)-3-fluoro-5-morpholin-4-ylbenzamide]
10 | 822 | 2340 | 88.5 | CC1CCCN1c1cc(C(=O)Nc2ccc(OCCN3CCOCC3)c3ccccc23)ccn1 (stereo not shown) [Compound B130, 2-(2-Methyl-pyrrolidin-1-yl)-N-[4-(2-morpholin-4-yl-ethoxy)-naphthalen-1-yl]-isonicotinamide]
11 | 1090 | > 10000 | 72.5 | O=C(Nc1ccc(OCCN2CCC3(CC2)OCCO3)c2ccccc12)c1cc(F)cc(N2CCCCC2)c1 [Compound B159, N-{4-[2-(1,4-Dioxa-8-aza-spiro[4.5]dec-8-yl)-ethoxy]-naphthalen-1-yl}-3-fluoro-5-piperidin-1-yl-benzamide]
12 | 2720 | 2530 | 71 | Cc1cc(C(=O)Nc2ccc(OCCN3CCOCC3)c3ccccc23)cc(N2CCC(C)CC2)n1 [Compound B154, 4,6′-Dimethyl-3,4,5,6-tetrahydro-2H-[1,2′]bipyridinyl-4′-carboxylic acid [4-(2-morpholin-4-yl-ethoxy)-naphthalen-1-yl]-amide]
13 | > 100000 | > 10000 | – | Cc1ccc(C(=O)Nc2ccc(OCCN3CCOCC3)c3ccccc23)cc1Br [Compound B37]
14 | 4840 | > 10000 | 57 | O=C(Nc1ccc(OCCN2CCC(CO)CC2)c2ccccc12)c1cc(F)cc(N2CCCCC2)c1 [Compound B163, 3-Fluoro-N-{4-[2-(4-hydroxymethyl-piperidin-1-yl)-ethoxy]-naphthalen-1-yl}-5-piperidin-1-yl-benzamide]
15 | 3180 | 4030 | 66 | O=C(Nc1ccc(OCCN2CCOCC2)c2ccccc12)c1ccc2ccccc2c1 [Compound B85]
16 | > 10000 | > 10000 | – | COc1ccc(-c2cccc(C(=O)Nc3ccc(OCCN4CCOCC4)c4ccccc34)c2)cc1F [Compound B290]
17 | > 10000 | > 10000 | – | Cc1cccc(C(=O)Nc2ccc(OCCN3CCOCC3)c3ccccc23)c1 [Compound B56]
